{"source": "patent US20030149010A1", "about": "“Combination of an aldosterone receptor antagonist and an HMG CoA reductase inhibitor” (priority 2001, published 2003)", "origin": "cited, not measured here", "key": {"[1]": {"test_system": "patients with severe heart failure", "details": "spironolactone added to ACE inhibitor therapy; 1663 patients with severe heart failure"}, "[2]": {"test_system": "patients afflicted with congestive heart failure", "details": "coadministered with an ACE inhibitor"}}, "data": [{"compound": "CC(=O)S[C@@H]1CC2=CC(=O)CC[C@]2(C)[C@H]2CC[C@@]3(C)[C@@H](CC[C@@]34CCC(=O)O4)[C@H]12", "note": "[spironolactone, 17-hydroxy-7α-mercapto-3-oxo-17α-pregn-4-ene-21-carboxylic acid γ-lactone acetate]", "values": [{"measurement": "reduction in hospitalizations", "setting": "[1]", "value": 35, "unit": "%"}, {"measurement": "reduction in mortality", "setting": "[1]", "value": 30, "unit": "%"}, {"measurement": "effectiveness in congestive heart failure", "setting": "[2]", "value": "highly effective in 13 of 16 patients"}]}]}
